Measurements: patent US10004816B2, “X-ray imaging contrast media with low iodine concentration and X-ray imaging process” (GE HEALTHCARE AS, priority 2012, dated 2018)

Key:
[1] = Aorta contrast to noise ratio (CNR), arterial phase contrast enhanced abdominal CT; type: in vivo, minipig; conditions: for FBP [CNR]: 320 mg I/ml, 120 kVp, SoC
Description: (§1) Three studies were carried out in two anaesthetized minipigs (abdominal maximum and minimum diameters approximately 36 cm and 20 cm, respectively). Minipigs were imaged on a Discovery CT 750 HD. Compositions of 160 mg I/ml and 200 mg I/ml Ioforminol were prepared. The 160 mg I/ml formulation included a sodium concentration of 82 mM and a calcium concentration of 0.9 mM. The 200 mg I/ml formulation included a sodium concentration of 73 mM and a calcium concentration of 0.8 mM. For human formulations the calcium concentration is likely to be slightly lower, providing an optimized Na/Ca ratio of 110-120. The Ioforminol formulations (2 ml/kg) were injected at a rate of 2 ml/s into a jugular vein, followed by a 20 ml saline flush at the same injection rate.
(§2) For comparison, Ioforminol at a concentration of 320 mg I/ml and 120 kVp tube voltage was administered to represent the current standard of care (SoC) imaging in man. SoC scans were compared to scans performed with either […] or 200 mg I/ml contrast concentration in the same pig, with at least a 2 day washout period between each scanning session. Automated tube current modulation was used with a noise index level of 23 (SoC) and a tube rotation time of 0.7 s. Post-contrast CT images were acquired during the arterial phase, the portal venous phase, the venous phase and the late phase. Image reconstruction was done by (1) FBP, (2) ASiR 60% and (3) Veo. Pixel size was 0.703 mm×0.703 mm×2.5 mm.
(§3) Iodine contrast enhancement was assessed by measuring the mean x-ray attenuation values (in HUs) within circular region of interests (ROIs). ROIs were placed in both aorta and muscle (quadratus lumborum) in arterial phase images and in the liver in venous phase images. See Tables 1-6 and corresponding FIGS. 1-6. The aorta contrast to noise ratio (CNR) was calculated as the difference in signal between the aorta and muscle, divided by the noise in muscle. The liver signal to noise ratio (SNR) was calculated as the ratio of the mean liver attenuation and the standard deviation (SD).

[2] = Liver signal to noise ratio (SNR), venous phase contrast enhanced abdominal CT; type: in vivo, minipig; conditions: for FBP [SNR]: 320 mg I/ml, 120 kVp, SoC
Description: as §1, §2, §3

[3] = Viscosity of Ioforminol compositions; type: physicochemical; conditions: 20° C.
Description: For X-ray diagnostic compositions which are administered by injection or infusion, the desired upper limit for the solution's viscosity at ambient temperature (20° C.) is generally about 30 mPas, however viscosities of up to 50 to 60 mPas and even more than 60 mPas are seen. With the low concentration of iodine in the composition of the invention the viscosity is below 10 mPas at 20° C., and this is even considerably lower at the lower end of the iodine concentration range. […] For comparison a 320 mg I/ml composition of Ioforminol has a viscosity of 28 mPas (at 20° C.). Particularly, for a 160 mg I/ml composition of Ioforminol the viscosity is only 2.9 mPas (at 20° C.), and for a 200 mg I/ml composition the viscosity is 4.7 mPas (20° C.). […] Such low viscosity has the advantage that the composition is easy to administer and the administration can be done more quickly with a higher volume per time unit, particularly as the injection pressure needed is considerably lower than with compositions with higher viscosities. The lower viscosity enables a reduction in the needle- or catheter diameter down to about 63% of the original diameter without effecting flow rate or injection pressure. As a consequence a hand-held syringe can be used rather than an autoinjector.

[4] = Average cluster size in solution; type: physicochemical
Excerpt: By intermolecular interactions the contrast media molecules form clusters that are continuously formed and broken up and the average cluster size may be described by a formation/destruction equilibrium. Ioforminol has an increased tendency to form clusters and in water at high concentration an average size of 4 molecules per cluster is predominating, whereas Iodixanol under similar conditions have a mean cluster size of 2.5 molecules. […] The cluster size affects the osmolality of the solution and larger clusters are reflected in a lower osmolality. The non-ideal behaviour of high concentration solutions permits the addition of physiological electrolytes to achieve isotonicity. […] This non-ideal behaviour persistent also at low concentrations enables the addition of physiological electrolytes to the current formulations.

[5] = 160 mg I/ml, 80 kVp, CTDIvol 5.2 mGy, FIG. 2
[6] = 200 mg I/ml, 80 kVp, CTDIvol 6.9 mGy, FIG. 1
[7] = 200 mg I/ml, 100 kVp, CTDIvol 5.2 mGy, FIG. 3
[8] = 160 mg I/ml, 80 kVp, CTDIvol 5.2 mGy, FIG. 5
[9] = 200 mg I/ml, 80 kVp, CTDIvol 6.9 mGy, FIG. 4
[10] = 200 mg I/ml, 100 kVp, CTDIvol 5.2 mGy, FIG. 6

O=CN(CC(O)CN(C=O)c1c(I)c(C(=O)NCC(O)CO)c(I)c(C(=O)NCC(O)CO)c1I)c1c(I)c(C(=O)NCC(O)CO)c(I)c(C(=O)NCC(O)CO)c1I (centres unmarked) [Ioforminol, 5,5′-((2-hydroxypropane-1,3-diyl)bis(formylazanediyl))bis(N1,N3-bis(2,3-dihydroxypropyl)-2,4,6-triiodoisophthalamide)]
ASiR 60% [CNR] [1, 5]: 15.1 | Veo [CNR] [1, 5]: 32.1 | ASiR 60% [CNR] [1, 6]: 23 | Veo [CNR] [1, 6]: 46.7 | ASiR 60% [CNR] [1, 7]: 17.7 | Veo [CNR] [1, 7]: 33.2 | FBP [CNR] ([1]; CTDIvol 7.4 mGy, FIG. 2 and 3): 16.9 | FBP [CNR] ([1]; CTDIvol 9.8 mGy, FIG. 1): 17.7 | ASiR 60% [SNR] [2, 8]: 7.7 | Veo [SNR] [2, 8]: 15.1 | ASiR 60% [SNR] [2, 9]: 9.5 | Veo [SNR] [2, 9]: 16.7 | ASiR 60% [SNR] [2, 10]: 7.9 | Veo [SNR] [2, 10]: 13.1 | FBP [SNR] ([2]; CTDIvol 7.4 mGy, FIG. 5 and 6): 8.2 | FBP [SNR] ([2]; CTDIvol 9.8 mGy, FIG. 4): 7.7 | viscosity ([3]; 160 mg I/ml composition): 2.9 mPas | viscosity ([3]; 200 mg I/ml composition): 4.7 mPas | viscosity ([3]; 320 mg I/ml composition): 28 mPas | average cluster size ([4]; in water at high concentration): 4 molecules per cluster | average cluster size ([4]; low concentrations): 2-3 molecules per cluster

CC(=O)N(CC(O)CN(C(C)=O)c1c(I)c(C(=O)NCC(O)CO)c(I)c(C(=O)NCC(O)CO)c1I)c1c(I)c(C(=O)NCC(O)CO)c(I)c(C(=O)NCC(O)CO)c1I (centres unmarked) [Iodixanol, iodixanol, reference compound]
average cluster size ([4]; in water at high concentration): 2.5 molecules per cluster | average cluster size ([4]; low concentrations): no longer present
